Source: article PMC4928094, “The first characterization of multidrug and toxin extrusion (MATE/SLC47) proteins in zebrafish (Danio rerio)” (Scientific Reports, 2016)
Structures can show the parent of a compound that is named as a salt. Where two headings read alike, the source gives them in different places.

Legend:
[1] = target: zebrafish Mate4 (Danio rerio, UniProt U3Q0C3); assay: DAPI inhibition assay, Mate4; type: cell-based; conditions: for interaction with DAPI uptake (in words): co-incubation with modulator (50 μM–2 mM), Fig. 5
Protocol: (§1) HEK293T cells were transiently transfected as described previously[31] using the PEI (polyethyleneimine) reagent in 48-well plates. Cells were in parallel transfected with pcDNA3.1/His/LacZ plasmid and transfection efficiency was evaluated 24 h after transfection with the LacZ staining protocol.
(§2) HEK293T cells overexpressing respective single zebrafish Mate transporter were used for further experiments. […] DAPI fluorescence was measured at 360 and 460 nm […], respectively. The uptake into vector-transfected HEK293T cells (mock cells) was subtracted to obtain transporter-specific uptake.
(§3) Inhibition assays using DAPI as a fluorescent substrate were performed in the same transport medium. […] Compounds tested for interaction were checked using at least four concentrations but only a representative concentration (with the highest response or the largest concentration in solubility range) is shown.
(§4) For the purpose of IC50 calculations, data were fitted to the sigmoidal four-parameter dose-response model (variable slope),

[2] = target: zebrafish Mate6 (Danio rerio, UniProt A1L2E7); assay: DAPI inhibition assay, Mate6; type: cell-based; conditions: for interaction strength: class by IC50 of DAPI uptake inhibition; for interaction with DAPI uptake (in words): co-incubation with modulator (50 μM–2 mM), Fig. 5
Protocol: as §1, §2, §3, §4

[3] = target: zebrafish Mate7 (Danio rerio, UniProt U3PTD6); assay: DAPI inhibition assay, Mate7; type: cell-based; conditions: for interaction strength: class by IC50 of DAPI uptake inhibition; for interaction with DAPI uptake (in words): co-incubation with modulator (50 μM–2 mM), Fig. 5
Protocol: as §1, §2, §3, §4

[4] = target: zebrafish Mate8 (Danio rerio, UniProt A0A8M6YZ09); assay: DAPI inhibition assay, Mate8; type: cell-based; conditions: for interaction strength: class by IC50 of DAPI uptake inhibition; for interaction with DAPI uptake (in words): co-incubation with modulator (50 μM–2 mM), Fig. 5
Protocol: as §1, §2, §3, §4

[5] = target: T1, zebrafish Mate3 (Danio rerio, UniProt A1L1P9); assay: DAPI inhibition assay, Mate3; type: cell-based; set-up: expressed in transfected cells; host or cells: HEK293T; conditions: for interaction with DAPI uptake (in words): Mate3, co-incubation with modulator (50 μM–2 mM), Fig. 5
T1 sequence (A1L1P9 1-590): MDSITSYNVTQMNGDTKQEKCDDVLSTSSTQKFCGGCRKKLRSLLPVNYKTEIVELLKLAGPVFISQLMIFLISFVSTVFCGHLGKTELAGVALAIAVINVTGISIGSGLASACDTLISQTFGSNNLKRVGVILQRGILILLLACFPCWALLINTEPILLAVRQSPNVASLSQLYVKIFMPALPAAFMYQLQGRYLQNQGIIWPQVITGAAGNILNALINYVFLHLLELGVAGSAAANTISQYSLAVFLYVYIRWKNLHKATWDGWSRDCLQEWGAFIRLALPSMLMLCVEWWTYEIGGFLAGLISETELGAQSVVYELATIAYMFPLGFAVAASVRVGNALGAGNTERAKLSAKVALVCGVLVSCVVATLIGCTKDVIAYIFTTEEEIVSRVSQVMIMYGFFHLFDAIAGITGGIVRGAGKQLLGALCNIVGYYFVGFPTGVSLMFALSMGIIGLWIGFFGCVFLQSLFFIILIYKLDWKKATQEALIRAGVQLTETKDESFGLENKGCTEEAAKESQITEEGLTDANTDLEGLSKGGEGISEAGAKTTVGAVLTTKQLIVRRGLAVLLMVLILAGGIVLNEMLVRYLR
Protocol: as §1, §2, §3, §4

[6] = test system: CC[n+]1c(-c2ccccc2)c2cc(N)ccc2c2ccc(N)cc21; assay: cells, lysate or membranes; conditions: dye uptake, HEK293T, mean ± SD
Protocol: (§5) Calibration curves for all substrates were generated in 0.1% SDS and in the cell matrix dissolved in 0.1% SDS. Resulting linear calibration curves were the same in the SDS and in the dissolved cell matrix. Using the calibration curves, uptake was expressed as pmol of substrate per mg of protein per minute. Total cell protein content was determined according to the Bradford method[33].
(§6) All assays were performed in 3–5 independent experiments run in triplicates. […] All calculations were performed using GraphPad Prism 5.00 for Windows (GraphPad Software, San Diego, California, USA) as described below. The kinetic parameters, Km and Vmax values were calculated using the Michaelis-Menten equation,
(§7) where V is velocity (picomoles of substrate per milligram of proteins per minute), Vmax is maximal velocity, [S] is substrate concentration and Km is the Michaelis Menten constant.

[7] = substrate: CN(C)c1ccc(/C=C/c2cc[n+](C)cc2)cc1; assay: cells, lysate or membranes; conditions: dye uptake, HEK293T, mean ± SD, NT = no transport found
Protocol: as §5, §6, §7

[8] = substrate: COC(=O)c1ccccc1-c1c2ccc(=N)cc-2oc2cc(N)ccc12; assay: cells, lysate or membranes; conditions: dye uptake, HEK293T, mean ± SD, NT = no transport found
Protocol: as §5, §6, §7

[9] = Mate4, inhibition of DAPI (1 μM) uptake, n = 3, NE = no effect in the compound solubility range, read-out: IC50
[10] = Mate7, inhibition of DAPI (2.5 μM) uptake, n = 3, NE = no effect in the compound solubility range, read-out: IC50
[11] = other: Mate4, NT = no transport found
[12] = other: Mate8, NT = no transport found

Chain of zebrafish Mate6 (A1L2E7 entry or part of it): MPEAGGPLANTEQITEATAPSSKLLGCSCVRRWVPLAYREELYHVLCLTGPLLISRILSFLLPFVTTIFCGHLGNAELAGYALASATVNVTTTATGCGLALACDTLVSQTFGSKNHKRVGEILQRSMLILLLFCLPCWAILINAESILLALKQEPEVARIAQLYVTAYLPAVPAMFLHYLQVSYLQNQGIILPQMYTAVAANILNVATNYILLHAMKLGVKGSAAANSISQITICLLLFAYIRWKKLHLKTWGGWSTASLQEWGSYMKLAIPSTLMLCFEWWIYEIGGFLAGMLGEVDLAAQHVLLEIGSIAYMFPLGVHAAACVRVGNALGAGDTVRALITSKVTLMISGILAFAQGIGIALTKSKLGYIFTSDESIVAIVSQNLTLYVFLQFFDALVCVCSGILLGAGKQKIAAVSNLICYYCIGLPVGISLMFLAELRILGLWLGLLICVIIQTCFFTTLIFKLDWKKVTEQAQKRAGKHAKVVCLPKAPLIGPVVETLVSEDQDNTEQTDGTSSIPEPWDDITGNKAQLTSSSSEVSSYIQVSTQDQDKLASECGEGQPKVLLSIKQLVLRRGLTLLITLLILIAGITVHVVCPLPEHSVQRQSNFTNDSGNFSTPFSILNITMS
Chain of zebrafish Mate7 (U3PTD6 entry or part of it): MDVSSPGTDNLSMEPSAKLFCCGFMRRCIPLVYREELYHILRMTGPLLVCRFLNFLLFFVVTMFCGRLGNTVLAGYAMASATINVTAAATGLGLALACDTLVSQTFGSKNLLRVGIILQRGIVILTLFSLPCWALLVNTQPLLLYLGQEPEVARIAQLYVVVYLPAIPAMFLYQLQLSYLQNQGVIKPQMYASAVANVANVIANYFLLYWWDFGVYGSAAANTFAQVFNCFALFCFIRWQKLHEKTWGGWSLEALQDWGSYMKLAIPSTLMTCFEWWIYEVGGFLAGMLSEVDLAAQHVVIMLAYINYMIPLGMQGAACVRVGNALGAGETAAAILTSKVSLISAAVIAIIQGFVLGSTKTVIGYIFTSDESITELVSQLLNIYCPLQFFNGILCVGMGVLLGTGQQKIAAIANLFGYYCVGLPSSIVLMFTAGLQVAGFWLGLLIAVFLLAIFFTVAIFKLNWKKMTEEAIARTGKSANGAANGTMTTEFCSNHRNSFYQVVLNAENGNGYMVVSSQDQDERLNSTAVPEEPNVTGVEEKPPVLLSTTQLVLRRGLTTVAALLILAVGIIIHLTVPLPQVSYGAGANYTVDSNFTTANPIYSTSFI

## C[C@]12C[C@H](O)[C@H]3[C@@H](CCC4=CC(=O)CC[C@@]43C)[C@@H]1CC[C@@H]2C(=O)CO [Corticosterone, corticosterone]
[1]
  IC50: 238 µM
[2]
  IC50: 99.3 µM
[2]; Mate6
  interaction strength: moderate (IC50 of 30–99 μM indicated moderate interaction)
[3]
  IC50: 99.6 µM
[3]; Mate7
  interaction strength: weak (IC50 of 100–999 μM was classified as weak interaction)
[4]
  IC50: 22.1 µM
[4]; Mate8
  interaction strength: strong (Compounds with IC50 of 1–29 μM were designated as strong interactors)

## C[C@]12CC[C@H](OS(=O)(=O)O)CC1=CC[C@@H]1[C@@H]2CC[C@]2(C)C(=O)CC[C@@H]12 [DHEAS, dehydroepiandrosterone sulfate]
[1]; [9]
  IC50: 313 µM
[2]; Mate6
  interaction strength: moderate (IC50 of 30–99 μM indicated moderate interaction)
[2]; Mate6, inhibition of DAPI (1 μM) uptake, n = 3, NE = no effect in the compound solubility range, read-out: IC50
  IC50: 39.1 µM
[3]; Mate7
  interaction strength: moderate (IC50 of 30–99 μM indicated moderate interaction)
[3]; [10]
  IC50: 60.2 µM
[4]; Mate8
  interaction strength: strong (Compounds with IC50 of 1–29 μM were designated as strong interactors)
[4]; Mate8, inhibition of DAPI (1 μM) uptake, n = 3, NE = no effect in the compound solubility range, read-out: IC50
  IC50: 26.9 µM

## C[C@H](CCC(=O)O)[C@H]1CC[C@H]2[C@@H]3CC[C@@H]4C[C@H](O)CC[C@]4(C)[C@H]3C[C@H](O)[C@]12C [Deoxycholate, deoxycholate]
[3]
  IC50: 203 µM
[3]; Mate7
  interaction strength: weak (IC50 of 100–999 μM was classified as weak interaction)
[4]
  IC50: 274 µM
[4]; Mate8
  interaction strength: weak (IC50 of 100–999 μM was classified as weak interaction)

## CC[N+](CC)(CC)CC [TEA, tetraethylammonium, reference compound]
[1]; [9]
  IC50: 5240 µM
[3]; [10]
  IC50: 3310 µM
[4]; Mate8
  interaction with DAPI uptake (in words): not inhibited
[5]
  interaction with DAPI uptake (in words): did not interact

## C[n+]1ccc(-c2cc[n+](C)cc2)cc1 [Paraquat, paraquat, reference compound]
[1]
  IC50: 462 µM
[2]
  IC50: 5730 µM
[3]; Mate7
  interaction with DAPI uptake (in words): too weak to determine the IC50
[4]
  IC50: 6290 µM
[4]; Mate8
  interaction strength: very weak (substances with IC50 above 1000 μM were considered very weak interactors)

## C[C@]12CCC(=O)C=C1CC[C@@H]1[C@@H]2CC[C@]2(C)C(=O)CC[C@@H]12 [Androstenedione, androstenedione]
[1]
  IC50: 114 µM
[2]
  IC50: 25.3 µM
[3]
  IC50: 14.9 µM
[3]; Mate7
  interaction strength: strong (Compounds with IC50 of 1–29 μM were designated as strong interactors)
[4]
  IC50: 20.1 µM
[4]; Mate8
  interaction strength: strong (Compounds with IC50 of 1–29 μM were designated as strong interactors)

## CN1CC(=O)NC1=N [creatinine]
[1]; Mate4
  interaction with DAPI uptake (in words): did not interact
[2]; Mate6
  interaction with DAPI uptake (in words): did not interact
[3]; Mate7
  interaction with DAPI uptake (in words): did not interact
[4]; Mate8
  interaction with DAPI uptake (in words): did not interact
[5]
  interaction with DAPI uptake (in words): did not interact

## zebrafish Mate4 (Danio rerio)
[6]; [11]
  Km: 0.45 ± 0.08 µM
  Vmax: 37.4 ± 2.02 pmol/mg protein/min

## zebrafish Mate6 (Danio rerio)
[6]; other: Mate6
  Km: 2.98 ± 0.18 µM
  Vmax: 504 ± 9.79 pmol/mg protein/min

## C=C[C@H]1C[N@@]2CC[C@H]1C[C@@H]2[C@@H](O)c1ccnc2ccc(OC)cc12 [Quinidine, quinidine, reference compound]
[5]; read-out: IC50
  IC50: 58.4 µM

## zebrafish Mate8 (Danio rerio)
[6]; [12]
  Km: 0.85 ± 0.12 µM
  Vmax: 17.0 ± 0.59 pmol/mg protein/min

## CN(C)C(=N)N=C(N)N [metformin, reference compound]
[1]; Mate4
  interaction with DAPI uptake (in words): did not interact
[2]; Mate6
  interaction with DAPI uptake (in words): did not interact
[3]; Mate7
  interaction with DAPI uptake (in words): did not interact
[4]; Mate8
  interaction with DAPI uptake (in words): did not interact

## zebrafish Mate7 (Danio rerio)
[6]; other: Mate7
  Km: 0.79 ± 0.19 µM
  Vmax: 26.3 ± 1.82 pmol/mg protein/min

## C[C@]12CC[C@H]3[C@@H](CCC4=CC(=O)CC[C@@]43C)[C@@H]1CC[C@@H]2O [Testosterone, testosterone]
[1]
  IC50: 651 µM
[1]; Mate4
  interaction with DAPI uptake (in words): inhibited
[2]
  IC50: 39 µM
[2]; Mate6
  interaction strength: moderate (IC50 of 30–99 μM indicated moderate interaction)
  interaction with DAPI uptake (in words): inhibited
[3]
  IC50: 42 µM
[3]; Mate7
  interaction strength: moderate (IC50 of 30–99 μM indicated moderate interaction)
  interaction with DAPI uptake (in words): inhibited
[4]
  IC50: 50.5 µM
[4]; Mate8
  interaction strength: moderate (IC50 of 30–99 μM indicated moderate interaction)
  interaction with DAPI uptake (in words): inhibited
[5]
  IC50: 669 µM
  interaction with DAPI uptake (in words): inhibited

B1: zebrafish Mate8 (Danio rerio) (protein)
chain: MDVSSPTTEASSMEPSTKLFCCRSVRRCIPLVYRQELYHILCMTGPLVASRILNYLLPFVITMFCGRLGNSVLAGYGMASATINITTAATGGGLALAADTLISQTFGGKNLRRVGIILQRSVLILLLFCLPCCALLINTQPILLLLRQDPEVARIAQLYVVCYLPAVPAMFLHQLQVAYLQNQGVILPQMYAGIAANVANVLTNYILLHWLELGVYGSAAANTISQIYICAFLYLYIRWKKLHVETWGGWSCDSLQEWDGYMKLAIPSTMMLCFEWWIYEVGGFLAGMLGELDLAAQHAVIMLAFINYMFPLGIQGAACVRVGNALGAGDTAGAIRTSKVSLTCTAALAVLQGLVLVSTKTVIGFLFTSDRHIVALVSKLLNVYCVLQFFDGLVCVSMGILLGSGQQKIAAVANFFGYYCIGLPLGTSLMFAAKLDVVGFWLGLLICVCVQSSFFIGVIFKFNWERVTKEAVERAGRTKISAMTAPDSITARHRENGDEYITVSAADPNVEPNATGVEEKPPVLLSTSQLVLRRGLTTLAALLILAGGITVHLIVPLPQMFYGAAANFTLNSNFTTPSSFIHSTSASL
[7]; other: Mate8
  Km: 2.34 ± 0.37 µM
  Vmax: 22.2 ± 1.09 pmol/mg protein/min
[8]; other: Mate8
  Km: 0.88 ± 0.14 µM

B2: zebrafish Mate4 (Danio rerio) (protein)
chain: MEMNSIHTEDHINGYQKEEKVEDAQLTSRSICAECLRKLRRLLPVNYKEEVMQLLKLAGPVFISQLMIFLISFVSTVFCGHLGKTELAGVALAIAVINVTGISIGSGLASACDTLISQTFGSNNLKRVGVILQRGILILLLACFPCWALLINTEPILLAVRQSPNVASLSQLYVKIFMPALPATFMYQLQGLYLQNQGIIWPQVITGAAGNILNALINYVFLYLLDLGVPGSAAANAISQYSLAVILYTYIRCMGLHKATWDGWSWDCLQEWGSFIRLALPSMLMLCAEWWTYEIGGFLAGLISEVELGAQSIVYELASVMYMFPLGFAVAAGVRVGNALGAGNTEQAKLSAKVSLVCGLLVSSVIAVVIAGTNNIIGYIFSKDEDIVLRVSQVMVMYGFVHLFDATSAITGGIVRGAGKQQIGALCNMVGYYCVGFPIGVSLMFAFNMGIVGLWIGFFTCVFLQSLFFIILIYRLDWKKATQEALIRAGVQLTEIKYESFGLENKGCTEEAAQENTEEGQTDTNTDLEGLSKGEGGITDAVALVTVGEVLTAKQLAVRRGLAFFFMLLILTGGIVLNEVLIRFVI
[7]; other: Mate4
  Km: 4.49 ± 0.63 µM
  Vmax: 23.6 ± 1.23 pmol/mg protein/min
[8]; other: Mate4
  Km: 0.32 ± 0.03 µM
